From ChEMBL document CHEMBL1145395, “De novo design of selective antibiotic peptides by incorporation of unnatural amino acids” (J Med Chem, 2007)
≈ marks a conversion by molar mass, not a printed value. Calls of active or inactive are those of the source. No cut-off for these calls is given here. Non-standard residues stand in square brackets, D forms with d. Residues, ends and D or L forms follow the SMILES beside them. ξ: configuration not given here. Phe(4-NO2) = N[C@@H](Cc1ccc([N+](=O)[O-])cc1)C(=O)O; Pro(3ξ,4ξ-(CH2)4) = O=C(O)[C@H]1NCC2CCCCC21; Oic = O=C(O)[C@@H]1C[C@@H]2CCCC[C@@H]2N1; Pro(3,4-benzo) = O=C(O)[C@H]1NCc2ccccc21; Tic = O=C(O)[C@@H]1Cc2ccccc2CN1; βAla = NCCC(=O)O

Experiments:
[1] = Toxicity to mouse RBC assessed as hemolytic activity at 100 uM; assay type: cell-based, Erythrocyte; conditions: red blood cells, read-out: Activity
Salmonella typhimurium = assay: Antibacterial activity against Salmonella Typhimurium ATCC 13311; assay type: functional, Salmonella enterica subsp. enterica serovar Typhimurium; conditions: Salmonella enterica
Staphylococcus aureus = assay: Antibacterial activity against methicillin/gentamicin/tetracycline resistant Staphylococcus aureus ATCC 33592; assay type: functional
Mycobacterium = assay: Antibacterial activity against Mycobacterium ranae ATCC 110; assay type: functional

CC(C)C[C@H](NC(=O)CNC(=O)[C@H](CCCCN)NC(=O)CN)C(=O)N1Cc2ccccc2C[C@H]1C(=O)N1CC2CCCCC2[C@H]1C(=O)N[C@@H](Cc1ccccc1)C(=O)N[C@@H](CCCCN)C(=O)N1Cc2ccccc2C[C@H]1C(=O)N1CC2CCCCC2[C@H]1C(=O)N[C@@H](CCCCN)C(=O)N[C@@H](Cc1ccccc1)C(=O)N1Cc2ccccc2C[C@H]1C(=O)N1CC2CCCCC2[C@H]1C(=O)N[C@@H](Cc1ccccc1)C(=O)N[C@@H](CCCCN)C(=O)N1Cc2ccccc2C[C@H]1C(=O)N1CC2CCCCC2[C@H]1C(=O)N[C@@H](CCCCN)C(=O)N[C@@H](Cc1ccccc1)C(=O)N1Cc2ccccc2C[C@H]1C(=O)N1CC2CCCCC2[C@H]1C(=O)N[C@@H](Cc1ccccc1)C(=O)N[C@@H](CCCCN)C(=O)N1Cc2ccccc2C[C@H]1C(=O)N1CC2CCCCC2[C@H]1C(=O)N[C@@H](Cc1ccccc1)C(=O)N[C@@H](CCCCN)C(=O)N[C@@H](CCCNC(=N)N)C(N)=O (some centres not stated) (H-GKGL[Tic][Pro(3ξ,4ξ-(CH2)4)]FK[Tic][Pro(3ξ,4ξ-(CH2)4)]KF[Tic][Pro(3ξ,4ξ-(CH2)4)]FK[Tic][Pro(3ξ,4ξ-(CH2)4)]KF[Tic][Pro(3ξ,4ξ-(CH2)4)]FK[Tic][Pro(3ξ,4ξ-(CH2)4)]FKR-NH2)
hemolysis at 100 µM [1]: 100%

CC(=O)NCC(=O)N[C@@H](Cc1ccc([N+](=O)[O-])cc1)C(=O)N1Cc2ccccc2C[C@H]1C(=O)N1CC2CCCCC2[C@H]1C(=O)NCC(=O)N[C@@H](CCCCN)C(=O)N1Cc2ccccc2C[C@H]1C(=O)N1CC2CCCCC2[C@H]1C(=O)NCC(=O)N[C@@H](Cc1ccc([N+](=O)[O-])cc1)C(=O)N1Cc2ccccc2C[C@H]1C(=O)N1CC2CCCCC2[C@H]1C(=O)NCC(=O)N[C@@H](CCCCN)C(=O)N1Cc2ccccc2C[C@H]1C(=O)N[C@@H](CCCCN)C(=O)N[C@@H](CCCCN)C(=O)N[C@@H](CCCCN)C(=O)N[C@@H](CCCCN)C(N)=O (some centres not stated) (Ac-G[Phe(4-NO2)][Tic][Pro(3ξ,4ξ-(CH2)4)]GK[Tic][Pro(3ξ,4ξ-(CH2)4)]G[Phe(4-NO2)][Tic][Pro(3ξ,4ξ-(CH2)4)]GK[Tic]KKKK-NH2)
MIC (Salmonella typhimurium): 30 µM (≈ 75.9 µg/mL) | MIC (Staphylococcus aureus): 10 µM (≈ 25.3 µg/mL) | MIC (Mycobacterium): 10 µM (≈ 25.3 µg/mL)

CC(C)C[C@H](NC(=O)[C@@H]1C2CCCCC2CN1C(=O)[C@@H]1Cc2ccccc2CN1C(=O)CNC(=O)[C@H](CCCCN)NC(=O)CNC(=O)[C@@H]1C2CCCCC2CN1C(=O)[C@@H]1Cc2ccccc2CN1C(=O)[C@H](CO)NC(=O)[C@H](CC(C)C)NC(=O)[C@@H](N)CCC(=O)O)C(=O)N[C@@H](CCCCN)C(=O)N[C@@H](CCC(=O)O)C(=O)N[C@@H](CO)C(N)=O (some centres not stated) (H-ELS[Tic][Pro(3ξ,4ξ-(CH2)4)]GKG[Tic][Pro(3ξ,4ξ-(CH2)4)]LKES-NH2)
hemolysis at 100 µM [1]: 23%

CSCC[C@H](NC(=O)[C@H](CC(C)C)NC(=O)[C@H](CCC(=O)O)NC(=O)[C@@H]1C[C@@H]2CCCC[C@@H]2N1C(=O)[C@@H]1Cc2ccccc2CN1C(=O)[C@H](Cc1ccccc1)NC(=O)CCNC(=O)[C@@H]1C[C@@H]2CCCC[C@@H]2N1C(=O)[C@@H]1Cc2ccccc2CN1C(=O)[C@H](CCCCN)NC(=O)CCNC(=O)[C@@H]1C[C@@H]2CCCC[C@@H]2N1C(=O)[C@@H]1Cc2ccccc2CN1C(=O)[C@H](Cc1ccccc1)NC(=O)CCNC(=O)[C@@H]1C[C@@H]2CCCC[C@@H]2N1C(=O)[C@@H]1Cc2ccccc2CN1C(=O)[C@H](CCCCN)NC(=O)CCNC(=O)[C@@H]1C[C@@H]2CCCC[C@@H]2N1C(=O)[C@@H]1Cc2ccccc2CN1C(=O)[C@H](CC(C)C)NC(=O)CNC(=O)[C@H](CCCCN)NC(=O)CN)C(=O)N[C@@H](CC(N)=O)C(=O)N[C@@H](CO)C(N)=O (H-GKGL[Tic][Oic][βAla]K[Tic][Oic][βAla]F[Tic][Oic][βAla]K[Tic][Oic][βAla]F[Tic][Oic]ELMNS-NH2)
hemolysis at 100 µM [1]: 55%

CC(=O)NCC(=O)N[C@H](Cc1ccccc1)C(=O)N1Cc2ccccc2C[C@H]1C(=O)N1[C@H](C(=O)NCC(=O)N[C@@H](CCCCN)C(=O)N2Cc3ccccc3C[C@H]2C(=O)N2[C@H](C(=O)NCC(=O)N[C@H](Cc3ccccc3)C(=O)N3Cc4ccccc4C[C@H]3C(=O)N3[C@H](C(=O)NCC(=O)N[C@@H](CCCCN)C(=O)N4Cc5ccccc5C[C@H]4C(=O)N[C@@H](CCCCN)C(=O)N[C@@H](CCCCN)C(=O)N[C@@H](CCCCN)C(=O)N[C@@H](CCCCN)C(N)=O)C[C@@H]4CCCC[C@@H]43)C[C@@H]3CCCC[C@@H]32)C[C@@H]2CCCC[C@@H]21 (Ac-G[dF][Tic][Oic]GK[Tic][Oic]G[dF][Tic][Oic]GK[Tic]KKKK-NH2)
MIC (Salmonella typhimurium): 10 µM (≈ 24.4 µg/mL) | MIC (Staphylococcus aureus): 3 µM (≈ 7.32 µg/mL) | MIC (Mycobacterium): 10 µM (≈ 24.4 µg/mL)

CC(C)C[C@H](NC(=O)CNC(=O)[C@H](CCCCN)NC(=O)CN)C(=O)N1Cc2ccccc2C[C@H]1C(=O)N1CC2CCCCC2[C@H]1C(=O)NCC(=O)N[C@@H](CCCCN)C(=O)N1Cc2ccccc2C[C@H]1C(=O)N1CC2CCCCC2[C@H]1C(=O)NCC(=O)N[C@@H](CC(C)C)C(=O)N1Cc2ccccc2C[C@H]1C(=O)N1CC2CCCCC2[C@H]1C(=O)NCC(=O)N[C@@H](CCCCN)C(=O)N1Cc2ccccc2C[C@H]1C(=O)N1CC2CCCCC2[C@H]1C(=O)NCC(=O)N[C@@H](CC(C)C)C(=O)N1Cc2ccccc2C[C@H]1C(=O)N1CC2CCCCC2[C@H]1C(=O)NCC(=O)N[C@@H](CCCCN)C(=O)N1Cc2ccccc2C[C@H]1C(=O)N1CC2CCCCC2[C@H]1C(=O)NCC(=O)N[C@@H](CCCCN)C(=O)N[C@@H](CCCNC(=N)N)C(N)=O (some centres not stated) (H-GKGL[Tic][Pro(3ξ,4ξ-(CH2)4)]GK[Tic][Pro(3ξ,4ξ-(CH2)4)]GL[Tic][Pro(3ξ,4ξ-(CH2)4)]GK[Tic][Pro(3ξ,4ξ-(CH2)4)]GL[Tic][Pro(3ξ,4ξ-(CH2)4)]GK[Tic][Pro(3ξ,4ξ-(CH2)4)]GKR-NH2)
hemolysis at 100 µM [1]: 100%

CC(C)C[C@H](NC(=O)CNC(=O)[C@H](CCCCN)NC(=O)CN)C(=O)N1Cc2ccccc2C[C@H]1C(=O)N1[C@H](C(=O)NCC(=O)N[C@@H](CCCNC(=N)N)C(=O)N2Cc3ccccc3C[C@H]2C(=O)N2[C@H](C(=O)NCC(=O)N[C@@H](Cc3ccccc3)C(=O)N3Cc4ccccc4C[C@H]3C(=O)N3[C@H](C(=O)NCC(=O)N[C@@H](CCCNC(=N)N)C(=O)N4Cc5ccccc5C[C@H]4C(=O)N4[C@H](C(=O)NCC(=O)N[C@@H](Cc5ccccc5)C(=O)N5Cc6ccccc6C[C@H]5C(=O)N5[C@H](C(=O)NCC(=O)N[C@@H](CCCNC(=N)N)C(=O)N6Cc7ccccc7C[C@H]6C(=O)N6[C@H](C(=O)NCC(=O)N[C@@H](CCCCN)C(=O)N[C@@H](CCCNC(=N)N)C(N)=O)C[C@@H]7CCCC[C@@H]76)C[C@@H]6CCCC[C@@H]65)C[C@@H]5CCCC[C@@H]54)C[C@@H]4CCCC[C@@H]43)C[C@@H]3CCCC[C@@H]32)C[C@@H]2CCCC[C@@H]21 (H-GKGL[Tic][Oic]GR[Tic][Oic]GF[Tic][Oic]GR[Tic][Oic]GF[Tic][Oic]GR[Tic][Oic]GKR-NH2)
hemolysis at 100 µM [1]: 100%

CSCC[C@H](NC(=O)[C@H](CC(C)C)NC(=O)[C@H](CCC(=O)O)NC(=O)[C@@H]1C[C@@H]2CCCC[C@@H]2N1C(=O)[C@@H]1Cc2ccccc2CN1C(=O)[C@H](Cc1ccccc1)NC(=O)CNC(=O)[C@@H]1C[C@@H]2CCCC[C@@H]2N1C(=O)[C@@H]1Cc2ccccc2CN1C(=O)[C@H](CCCNC(=N)N)NC(=O)CNC(=O)[C@@H]1C[C@@H]2CCCC[C@@H]2N1C(=O)[C@@H]1Cc2ccccc2CN1C(=O)[C@H](Cc1ccccc1)NC(=O)CNC(=O)[C@@H]1C[C@@H]2CCCC[C@@H]2N1C(=O)[C@@H]1Cc2ccccc2CN1C(=O)[C@H](CCCNC(=N)N)NC(=O)CNC(=O)[C@@H]1C[C@@H]2CCCC[C@@H]2N1C(=O)[C@@H]1Cc2ccccc2CN1C(=O)[C@H](CC(C)C)NC(=O)CNC(=O)[C@H](CCCCN)NC(=O)CN)C(=O)N[C@@H](CC(N)=O)C(=O)N[C@@H](CO)C(N)=O (H-GKGL[Tic][Oic]GR[Tic][Oic]GF[Tic][Oic]GR[Tic][Oic]GF[Tic][Oic]ELMNS-NH2)
hemolysis at 100 µM [1]: 70%

CC(C)C[C@@H](NC(=O)CNC(=O)[C@H](CCCCN)NC(=O)CN)C(=O)N1Cc2ccccc2C[C@H]1C(=O)N1CC2CCCCC2[C@H]1C(=O)N[C@@H](Cc1ccccc1)C(=O)N[C@@H](CCCN)C(=O)N1Cc2ccccc2C[C@H]1C(=O)N1CC2CCCCC2[C@H]1C(=O)N[C@H](CCCCN)C(=O)N[C@@H](Cc1ccccc1)C(=O)N1Cc2ccccc2C[C@H]1C(=O)N1CC2CCCCC2[C@H]1C(=O)N[C@@H](Cc1ccccc1)C(=O)N[C@@H](CCCCN)C(=O)N1Cc2ccccc2C[C@H]1C(=O)N1CC2CCCCC2[C@H]1C(=O)N[C@@H](CCCCN)C(=O)N[C@@H](Cc1ccccc1)C(=O)N1Cc2ccccc2C[C@H]1C(=O)N1CC2CCCCC2[C@H]1C(=O)N[C@H](Cc1ccccc1)C(=O)N[C@@H](CCCCN)C(=O)N1Cc2ccccc2C[C@H]1C(=O)N1CC2CCCCC2[C@H]1C(=O)N[C@@H](Cc1ccccc1)C(=O)N[C@@H](CCCCN)C(=O)N[C@@H](CCCNC(=N)N)C(N)=O (some centres not stated)
Activity (Mycobacterium): inactive

CC(=O)NCC(=O)N[C@@H](Cc1ccccc1)C(=O)N1Cc2ccccc2C[C@H]1C(=O)N1[C@H](C(=O)NCC(=O)N[C@H](CCCCN)C(=O)N2Cc3ccccc3C[C@H]2C(=O)N2[C@H](C(=O)NCC(=O)N[C@@H](Cc3ccccc3)C(=O)N3Cc4ccccc4C[C@H]3C(=O)N3[C@H](C(=O)NCC(=O)N[C@H](CCCCN)C(=O)N4Cc5ccccc5C[C@H]4C(=O)N[C@@H](CCCCN)C(=O)N[C@@H](CCCCN)C(=O)N[C@@H](CCCCN)C(=O)N[C@@H](CCCCN)C(N)=O)C[C@@H]4CCCC[C@@H]43)C[C@@H]3CCCC[C@@H]32)C[C@@H]2CCCC[C@@H]21 (Ac-GF[Tic][Oic]G[dK][Tic][Oic]GF[Tic][Oic]G[dK][Tic]KKKK-NH2)
MIC (Salmonella typhimurium): 10 µM (≈ 24.4 µg/mL) | MIC (Staphylococcus aureus): 10 µM (≈ 24.4 µg/mL) | MIC (Mycobacterium): 10 µM (≈ 24.4 µg/mL)

CSCC[C@H](NC(=O)[C@H](CC(C)C)NC(=O)[C@H](CCC(=O)O)NC(=O)[C@@H]1c2ccccc2CN1C(=O)[C@@H]1Cc2ccccc2CN1C(=O)[C@H](Cc1ccccc1)NC(=O)CCNC(=O)[C@@H]1c2ccccc2CN1C(=O)[C@@H]1Cc2ccccc2CN1C(=O)[C@H](CCCCN)NC(=O)CCNC(=O)[C@@H]1c2ccccc2CN1C(=O)[C@@H]1Cc2ccccc2CN1C(=O)[C@H](Cc1ccccc1)NC(=O)CCNC(=O)[C@@H]1c2ccccc2CN1C(=O)[C@@H]1Cc2ccccc2CN1C(=O)[C@H](CCCCN)NC(=O)CCNC(=O)CCNC(=O)CNC(=O)[C@H](CC(C)C)NC(=O)CNC(=O)[C@H](CCCCN)NC(=O)CNC(=O)[C@@H](N)CCC(=O)O)C(=O)N[C@@H](CC(N)=O)C(=O)N[C@@H](CO)C(N)=O (H-EGKGLG[βAla][βAla]K[Tic][Pro(3,4-benzo)][βAla]F[Tic][Pro(3,4-benzo)][βAla]K[Tic][Pro(3,4-benzo)][βAla]F[Tic][Pro(3,4-benzo)]ELMNS-NH2)
hemolysis at 100 µM [1]: 27%
